Measurements as given in patent US20240277658A1, “NLRP3 ACTIVATORS FOR USE IN THE TREATMENT OF INFECTIOUS DISEASES OR CANCER BY ACTIVATING NLRP3 INFLAMMASOME” (ALBERT-LUDWIGS-UNIVERSITÄT FREIBURG, priority 2020, published 2024).
“And” between values parts separate entries of the source, which are not always exact repeats. Equal values may be shown once. Where a name gives a salt, the structure may show the parent alone. Read-outs that look alike come from different tables or passages of the source.

Tests used:
BMDCs = assay: LDH release (lytic cell death, pyroptosis) from LPS-primed BMDCs; format: cell-based, mouse; conditions: for Average (% positive control): LDH release, positive control nigericin 5 μM; for cytotoxicity at 50 µM / cytotoxicity at 5 µM: Mus musculus, BMDC
Outline: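 Mouse BMDCs (7-9 days differentiated, GM-CSF) primed with 50 ng ml^−1 E. coli K12 LPS for 3 hours, then exposed 3 hours to compounds (50 μM unless indicated) or activators (nigericin 5 μM; R837, CL097 100 μM). Lytic death measured as LDH release by colorimetric assay, triplicate wells.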

NLRP3 inflammasome = target: T1, NLRP3 inflammasome (Mus musculus, UniProt Q8R4B8); assay: IL-1β release from LPS-primed BMDCs (ELISA) as readout of NLRP3 inflammasome activation; format: cell-based; conditions: for Average (% positive control): IL-1β release, positive control nigericin 5 μM; for IL-1β: single replicates
T1 construct: endogenous in cells; host or cells: primary mouse bone marrow-derived dendritic cells (BMDCs), LPS-primed
T1 sequence (Q8R4B8 whole entry): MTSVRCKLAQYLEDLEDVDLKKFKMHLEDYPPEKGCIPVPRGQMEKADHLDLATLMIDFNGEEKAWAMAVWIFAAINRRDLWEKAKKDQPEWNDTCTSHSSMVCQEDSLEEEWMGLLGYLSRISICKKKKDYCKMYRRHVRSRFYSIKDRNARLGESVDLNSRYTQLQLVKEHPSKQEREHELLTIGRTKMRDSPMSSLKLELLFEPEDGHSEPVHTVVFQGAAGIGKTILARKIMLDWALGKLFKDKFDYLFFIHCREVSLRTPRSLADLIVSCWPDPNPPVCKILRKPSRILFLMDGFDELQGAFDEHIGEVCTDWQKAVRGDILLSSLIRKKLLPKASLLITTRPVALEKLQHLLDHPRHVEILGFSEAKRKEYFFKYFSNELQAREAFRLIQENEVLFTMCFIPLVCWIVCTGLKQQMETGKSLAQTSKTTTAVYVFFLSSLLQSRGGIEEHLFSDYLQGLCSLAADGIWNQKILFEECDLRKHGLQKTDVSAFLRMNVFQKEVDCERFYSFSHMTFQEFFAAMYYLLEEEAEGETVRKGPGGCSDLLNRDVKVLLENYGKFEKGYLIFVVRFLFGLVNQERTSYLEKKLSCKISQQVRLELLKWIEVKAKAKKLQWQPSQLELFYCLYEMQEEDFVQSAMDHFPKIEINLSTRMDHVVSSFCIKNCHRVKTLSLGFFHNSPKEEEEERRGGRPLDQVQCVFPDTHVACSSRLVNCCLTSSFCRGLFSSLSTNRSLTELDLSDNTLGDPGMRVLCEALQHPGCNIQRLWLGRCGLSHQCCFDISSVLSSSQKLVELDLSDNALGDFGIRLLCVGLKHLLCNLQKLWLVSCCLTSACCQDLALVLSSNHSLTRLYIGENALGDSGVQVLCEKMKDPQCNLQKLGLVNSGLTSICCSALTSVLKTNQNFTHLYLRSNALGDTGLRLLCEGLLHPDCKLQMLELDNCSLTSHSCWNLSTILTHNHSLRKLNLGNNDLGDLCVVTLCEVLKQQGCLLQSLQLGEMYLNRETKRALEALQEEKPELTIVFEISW
Outline: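 NLRP3 inflammasome activation was read out as IL-1β released into the supernatant, measured by ELISA. Murine BMDCs were primed with LPS (50 ng ml^−1, 3 hours), then incubated with compounds for 3 hours, with each condition run in three technical replicates. Nigericin at 5 μM acted as the positive control activator, and IL-1β release was also expressed as a percentage of that control.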

[1] = compound 50 μM, LPS-primed BMDCs, read-out: Average LDH release (% of max.)
[2] = single replicates, compound 50 μM, LPS-primed BMDCs, read-out: LDH release (% of max.)
[3] = compound 50 μM, LPS-primed BMDCs

Average (% positive control) (NLRP3 inflammasome; compound 50 μM) | Average IL-1β (NLRP3 inflammasome; [3]) | SMILES | Average (% positive control) (BMDCs; compound 50 μM) | cytotoxicity at 50 µM (BMDCs; [1]) | cytotoxicity at 50 µM (BMDCs; [2]) | IL-1β (NLRP3 inflammasome; [3]) | Average (% positive control) (BMDCs; 5 μM) | cytotoxicity at 5 µM (BMDCs; 5 μM, LPS-primed BMDCs, read-out: Average LDH release (% of max.)) | cytotoxicity at 5 µM (BMDCs; section 1.3, 5 μM, read-out: Average LDH release (% of max.)) | cytotoxicity at 5 µM (BMDCs; single replicates, 5 μM, LPS-primed BMDCs, read-out: LDH release (% of max.)) | Average (% positive control) (BMDCs; section 1.3, 5 μM) | Average IL-1β (NLRP3 inflammasome; 5 μM, LPS-primed BMDCs) | Average (% positive control) (NLRP3 inflammasome; 5 μM) | Average IL-1β (NLRP3 inflammasome; section 1.3, 5 μM) | Average (% positive control) (NLRP3 inflammasome; section 1.3, 5 μM) | IL-1β (NLRP3 inflammasome; section 1.3, 5 μM, sodium salt) | IL-1β (NLRP3 inflammasome; 5 μM, LPS-primed BMDCs, sodium salt)
0.955 % positive control | 0.068 ng/mL | N#Cc1ccc(NC(=O)NC(CO)c2nc(-c3ccccc3)no2)cc1 (centres unmarked) [L01.112, 1-(4-cyanophenyl)-3-[2-hydroxy-1-(3-phenyl-1,2,4-oxadiazol-5-yl)-ethyl]urea] | 10.010 % positive control | 7.32% | 7.96% | 0.075 ng/mL and 0.069 ng/mL and 0.061 ng/mL |  |  |  |  |  |  |  |  |  |  | 
1.049 % positive control | 0.075 ng/mL | CC(C)C(NC(=O)Nc1ccc2c(c1)COC2)c1nc(-c2cccnc2)no1 (centres unmarked) [L01.114, 3-(1,3-dihydro-2-benzo-furan-5-yl)-1-{2-meth-yl-1-[3-(pyridin-3-yl)-1,2,4-oxadiazol-5-yl]-propyl}urea] | 12.801 % positive control | 9.37% | 9.46% | 0.073 ng/mL and 0.081 ng/mL and 0.072 ng/mL |  |  |  |  |  |  |  |  |  |  | 
1.584 % positive control | 0.114 ng/mL | O=C(NCc1nc(-c2ccsc2)no1)Nc1cc(Cl)cc(Cl)c1 [L01.115, 1-(3,5-dichlorophenyl)-3-{[3-(thiophen-3-yl)-1,2,4-oxadiazol-5-yl]-methyl}urea] | 30.346 % positive control | 22.2% | 23.6% | 0.122 ng/mL and 0.108 ng/mL and 0.111 ng/mL |  |  |  |  |  |  |  |  |  |  | 
13.268 % positive control | 0.951 ng/mL | Cc1ccc(NC(=O)Nc2ccccc2)cc1F [L01.124, 3-(3-fluoro-4-methyl-phenyl)-1-phenylurea] | 19.235 % positive control | 14.1% | 14.1% | 0.928 ng/mL and 0.902 ng/mL and 1.024 ng/mL |  |  |  |  |  |  |  |  |  |  | 
0.988 % positive control | 0.071 ng/mL | COc1ccc(NC(=O)NCc2nc(Cc3ccccc3)no2)cc1 [L01.125, 3-[(3-benzyl-1,2,4-oxadiazol-5-yl)methyl]-1-(4-methoxyphenyl)-urea] | 9.397 % positive control | 6.87% | 7.72% | 0.080 ng/mL and 0.071 ng/mL and 0.061 ng/mL |  |  |  |  |  |  |  |  |  |  | 
6.538 % positive control | 0.469 ng/mL | Cc1ccc(-c2noc(CN3C(=O)CN(c4ccccc4)C3=O)n2)cc1 [L01.127, 3-{[3-(4-methylphenyl)-1,2,4-oxadiazol-5-yl]-methyl}-1-phenylimid-azolidine-2,4-dione] | 14.301 % positive control | 10.5% | 11% | 0.490 ng/mL and 0.475 ng/mL and 0.441 ng/mL |  |  |  |  |  |  |  |  |  |  | 
5.819 % positive control | 0.417 ng/mL | CN1C(=O)c2ccc(NC(=O)Nc3ccccc3)cc2C1=O [L01.128, 3-(2-methyl-1,3-dioxo-2,3-dihydro-1H-iso-indol-5-yl)-1-phenyl-urea] | 16.086 % positive control | 11.8% | 12.1% | 0.456 ng/mL and 0.394 ng/mL and 0.402 ng/mL |  |  |  |  |  |  |  |  |  |  | 
4.350 % positive control | 0.312 ng/mL | Cc1ccc(N2C(=O)N(Cc3nc(-c4ccc(F)cc4)no3)C(=O)C2C)cc1 (centres unmarked) [L01.130, 3-{[3-(4-fluorophenyl)-1,2,4-oxadiazol-5-yl]-methyl}-5-methyl-1-(4-methylphenyl)imidazol-idine-2,4-dione] | 11.646 % positive control | 8.52% | 9.39% | 0.404 ng/mL and 0.317 ng/mL and 0.215 ng/mL |  |  |  |  |  |  |  |  |  |  | 
1.025 % positive control | 0.073 ng/mL | COc1cccc(NC(=O)N(C)Cc2nc(-c3cccnc3)no2)c1 [L01.136, 1-(3-methoxyphenyl)-3-methyl-3-{[3-(pyridin-3-yl)-1,2,4-oxadiazol-5-yl]methyl}urea] | 9.465 % positive control | 6.92% | 6.95% | 0.064 ng/mL and 0.073 ng/mL and 0.083 ng/mL |  |  |  |  |  |  |  |  |  |  | 

Second part, the molecule before the results:

SMILES | Average (% positive control) (NLRP3 inflammasome; compound 50 μM) | Average IL-1β (NLRP3 inflammasome; [3]) | Average (% positive control) (BMDCs; compound 50 μM) | cytotoxicity at 50 µM (BMDCs; [1]) | cytotoxicity at 50 µM (BMDCs; [2]) | IL-1β (NLRP3 inflammasome; [3]) | Average (% positive control) (BMDCs; 5 μM) | cytotoxicity at 5 µM (BMDCs; 5 μM, LPS-primed BMDCs, read-out: Average LDH release (% of max.)) | cytotoxicity at 5 µM (BMDCs; section 1.3, 5 μM, read-out: Average LDH release (% of max.)) | cytotoxicity at 5 µM (BMDCs; single replicates, 5 μM, LPS-primed BMDCs, read-out: LDH release (% of max.)) | Average (% positive control) (BMDCs; section 1.3, 5 μM) | Average IL-1β (NLRP3 inflammasome; 5 μM, LPS-primed BMDCs) | Average (% positive control) (NLRP3 inflammasome; 5 μM) | Average IL-1β (NLRP3 inflammasome; section 1.3, 5 μM) | Average (% positive control) (NLRP3 inflammasome; section 1.3, 5 μM) | IL-1β (NLRP3 inflammasome; section 1.3, 5 μM, sodium salt) | IL-1β (NLRP3 inflammasome; 5 μM, LPS-primed BMDCs, sodium salt)
CCc1ccc(Cl)c(CC)c1NC(=O)NC(c1nc(-c2cccnc2)no1)C(C)C (centres unmarked) [L01.113, 1-(3-chloro-2,6-diethyl-phenyl)-3-{2-methyl-1-[3-(pyridin-3-yl)-1,2,4-oxadiazol-5-yl]propyl}-urea] | 15.691 % positive control | 1.125 ng/mL | 49.256 % positive control | 36% | 37.4% | 1.145 ng/mL and 1.165 ng/mL and 1.064 ng/mL |  |  |  |  |  |  |  |  |  |  | 
Cc1ccc(NC(=O)Nc2ccccc2)cc1NC(=O)C(F)F [L01.116, 2,2-difluoro-N-{2-meth-yl-5-[(phenylcarbamo-yl)amino]phenyl}acet-amide] | 16.099 % positive control | 1.154 ng/mL | 24.685 % positive control | 18.1% | 18% | 1.107 ng/mL and 1.192 ng/mL and 1.163 ng/mL |  |  |  |  |  |  |  |  |  |  | 
O=C(Nc1ccccc1)Nc1cccc(OC(F)F)c1 [L01.120, 3-[3-(difluoromethoxy)-phenyl]-1-phenylurea] | 2.800 % positive control | 0.201 ng/mL | 33.449 % positive control | 24.5% | 25% | 0.207 ng/mL and 0.200 ng/mL and 0.196 ng/mL |  |  |  |  |  |  |  |  |  |  | 
CN(C)Cc1ccc(NC(=O)Nc2ccccc2)cc1 [L01.121, 3-{4-[(dimethylamino)-methyl]phenyl}-1-phen-ylurea] | 0.906 % positive control | 0.065 ng/mL | 11.907 % positive control | 8.71% | 7.8% | 0.066 ng/mL and 0.068 ng/mL and 0.060 ng/mL |  |  |  |  |  |  |  |  |  |  | 
O=C(Nc1ccccc1)Nc1cccc(NC(=O)NC2CC2)c1 [L01.122, 3-cyclopropyl-1-{3-[(phenylcarbamoyl)-amino]phenyl}urea] | 1.214 % positive control | 0.087 ng/mL | 11.054 % positive control | 8.09% | 9.16% | 0.072 ng/mL and 0.093 ng/mL and 0.095 ng/mL |  |  |  |  |  |  |  |  |  |  | 
CNC(=O)NCc1cccc(NC(=O)Nc2ccccc2)c1 [L01.132, 3-(3-{[(methylcarbamo-yl)amino]methyl}phen-yl)-1-phenylurea] | 0.920 % positive control | 0.066 ng/mL | 8.791 % positive control | 6.43% | 6.46% | 0.062 ng/mL and 0.066 ng/mL and 0.069 ng/mL |  |  |  |  |  |  |  |  |  |  | 
CCCCOC(=O)c1ccc(NC(=O)NC(CC(C)C)c2nc(-c3nnc[nH]3)no2)cc1 (centres unmarked) [L01.135, butyl 4-[{{3-methyl-1-[3-(4H-1,2,4-triazol-3-yl)-1,2,4-oxadiazol-5-yl]-butyl}carbamoyl)amino]-benzoate] | 0.975 % positive control | 0.070 ng/mL | 11.085 % positive control | 8.11% | 8.89% | 0.079 ng/mL and 0.073 ng/mL and 0.057 ng/mL |  |  |  |  |  |  |  |  |  |  | 
CO[C@@H]1C[C@@H](C[C@H]2CC[C@H](C)[C@H]([C@@H](C)C(=O)O)O2)O[C@]2(O[C@](C)([C@H]3CC[C@@](C)([C@@H]4O[C@@H]([C@H]5O[C@@](O)(CO)[C@H](C)C[C@@H]5C)C[C@@H]4C)O3)C[C@H]2C)[C@@H]1C [Nigericin, Nigericin sodium salt, reference compound] |  |  |  |  |  |  | 100.000 % positive control | 73.2% | 53.7% | 61.9% | 100.000 % positive control | 7.168 ng/mL | 100.000 % positive control | 3.151 ng/mL | 100.000 % positive control | 3.007 ng/mL and 3.127 ng/mL and 3.318 ng/mL | 6.834 ng/mL and 6.400 ng/mL and 7.872 ng/mL and 6.518 ng/mL and 7.890 ng/mL and 7.496 ng/mL
